≈ marks a conversion by molar mass, not a printed value.
Key:
[1] = tested on: S. epidermidis ATCC 35984; assay: MIC and MBC assays, broth dilution; format: cell-based; details: for MIC/MBC / MBC: S. epidermidis ATCC 35984; for MIC: ATCC35984, S. epidermidis ATCC 35984, MH broth
Protocol: (§1) MICs of the derivatives for S. epidermidis and S. aureus were determined by the broth dilution method according to the National Committee for Clinical Laboratory (NCCLS) recommendations (Turnidge and Bordash [2007]). Twofold dilutions of the derivatives in tubes containing 4 ml of Mueller-Hinton broth (MH, Sigma, Germany) were made to concentrations from 200 to 0.39 μM. Overnight cultures of the bacteria were adjusted to the 0.5 McFarland standards and inoculated 1:200 into the MH broth and then incubated at 37 °C for 16–20 h. The lowest concentration inhibiting visible growth of the bacteria was recorded as minimal inhibitory concentration (MIC).

[2] = tested on: S. epidermidis ATCC 35984; assay: Derivatives combined with vancomycin or cefazolin (FIC index); format: cell-based; details: for MIC: Staphylococcus epidermidis, ATCC35984, line paired with vancomycin, read-out: MIC Derivative alone; for MIC Derivative alone: line paired with cefazolin
Excerpt: Combination antimicrobial therapy is widely used to take advantage of different mechanisms of action. It may potentiate the effect of individual antimicrobial agents by synergic action (Bijnsdorp et al. [2011]; Cokol et al. [2011]). The glycopeptide antibiotics, such as vancomycin, can bind the peptidoglycan side chains in the cell wall and prevent cross-linking during cell wall synthesis. Vancomycin has been considered to be one of the most reliable therapeutic agents against staphylococcal infections, but it is unable to clear biofilms even at high concentration (128 mg/l) (Climo et al. [1999]; Darouiche et al. [1994]; Tenover et al. [2001]). […] YycGF also plays an important role in the synthesis of peptidoglycan in B. subtilis and S. aureus (Bisicchia et al. [2007]; Dubrac and Msadek [2004]). In a preliminary study, we assessed the effects of the combined application of the derivatives with vancomycin and cefazolin against S. epidermidis ATCC 35984 according to the method of Odds ([2003]) (Cottagnoud et al. [2003]). […] No antagonism was observed between the derivatives and vancomycin or cefazolin (Table S1).
17 Table S1. The derivatives combined with vancomycin or cefazolin against S. epidermidis
Derivatives Antibiotics MIC (mg/L) FICIa Synergyb
Derivative Antibiotic In combination
alone alone (Derivative/Antibiotic)
19 a The FICI was calculated as FIC indexes= (MICderivative A in combination/MICderivative A
20 alone)+(MICantibiotic B in combination/MIC antibiotic B alone).
21 b The interaction between the two antibacterials is noted as follows: FIC index≤0.5,
22 Synergy (+); 0.5<FIC index≤4 (-), No interaction; FIC≥4.0, Antagonism.

[3] = tested on: S. epidermidis ATCC 35984 biofilms; assay: Microtiter plate assay of S. epidermidis biofilms (crystal violet, MBEC); format: cell-based; details: 6-h-old (immature) biofilms
Protocol: The effects of the derivatives on immature (6-h-old) biofilms and mature (24-h-old) biofilms of S. epidermidis ATCC 35984 were detected by using a semiquantitative microtiter plate assay (Stepanovic et al. [2007]). An overnight culture of bacteria was inoculated 1:200 into TSB medium containing 0.25 % glucose and statically incubated in a polystyrene 96-well plate (200 μl per well) at 37 °C for 6 or 24 h. The medium containing any nonadherent bacteria was then removed, and serial dilutions of derivatives in 200 μl fresh TSB were added to the wells and incubated for another 16 h at 37 °C. The wells were then washed gently three times with phosphate buffered saline (PBS), air-dried, fixed with methanol, and stained with 2 % (w/v) crystal violet. The staining was visually assessed and scanned at 570 nm using a 96-well plate spectrophotometer (DTX880, Beckman Coulter, USA), and the minimal biofilm eradication concentration (MBEC) was measured (Ceri et al. [1999]).

[4] = tested on: Clinical MRSA strains; assay: MIC, broth dilution; format: cell-based, S. aureus; details: Staphylococcus aureus; Clinical MRSA strains (n = 5)
Protocol: Bacterial strains S. epidermidis ATCC 12228 (nonbiofilm forming), S. epidermidis ATCC 35984 (biofilm forming), S. aureus ATCC 49230, and S. aureus ATCC 25923 were from the American Type Culture Collection (ATCC, Manassas, USA) and were cultured in tryptic soy broth medium (TSB; Oxoid Ltd., Basingstoke, England). Ten clinical methicillin-resistant staphylococcal isolates, five MRSA isolates and five MRSE isolates, were collected from Huadong Teaching Hospital in Shanghai. Escherichia coli ATCC 25922 was grown in Luria-Bertani (LB) broth. The six compounds used in this study (H2-38, H2-39, H2-57, H2-60, H2-74, and H2-81) were screened from 56 derivatives of compound 2 in which the functional groups were modified, but the thiazolidine core structure was unchanged. The compounds were synthesized by Nanjing University of Technology. To generate the derivative compounds, halogen atoms were introduced into 4-thiazolidinone compounds that contained carboxylic acid moieties of phenoxy-acetic acid, (5-vinyl-furan-2-yl)-benzoic acid or (5-vinyl-thiophene-2-yl)-benzoic acid. The derivatives were dissolved in dimethyl sulfoxide (DMSO; Amresco, USA) to 200 mM for use as stock solutions.
as §1

[5] = Cytotoxicity, MTT assay; format: cell-based; details: African green monkey, Vero 76 cells
Protocol: Vero 76 cells (African green monkey cells) were used to determine the cytotoxicity of the derivatives with the Cell Proliferation Kit I (MTT) (Roche, Indianapolis, USA). The Vero cells were grown in Dulbecco’s modified Eagle’s medium (DMEM), supplemented with 5 % fetal calf serum, 100 U/ml penicillin, […] streptomycin, and 2 mM L-glutamine. After culturing in 5 % CO2 at 37 °C for 48 h, the cells were harvested and dispensed into 96-well cell culture plates containing 5 × 10^4 cells per well in 100 μl. The cells were co-incubated with serial twofold dilutions of derivatives from 200 to 6.25 μM (six different concentrations) for 24 h at 37 °C in 5 % CO2. Then, 10 μl of the MTT labeling reagent (final concentration 0.5 mg/ml) was added to each well and incubated for 4 h. The solubilization solution (100 μl per well) was added to dissolve the purple formazan salts generated in the viable cells, and the absorbance of each well was measured at 595 nm. Cells treated with the solvent (0.1 % DMSO) were used as a negative control and the cells cultured only with DMEM medium served as a blank control. The inhibitory rate was calculated as follows: Inhibitoryrate%=Ocontrol−ODtest/ODcontrol×100
CC50 was defined as the concentration of the derivatives that inhibited the Vero cell growth by 50 % and was calculated with the Origin v8.0 software (Origin Lab, Northampton, USA) (Qin et al. [2006]).

[6] = Staphylococcus epidermidis, ATCC35984
[7] = cefazolin combined with the labelled derivative
[8] = derivative combined with cefazolin
[9] = derivative combined with vancomycin
[10] = vancomycin combined with the labelled derivative

Compound | MIC/MBC [1] | MBC [1, 6] [µM] | MIC [2] [µg/mL] | MIC In combination: antibiotic [2, 7] [µg/mL] | FICI ([2]; derivative + cefazolin) | FICI ([2]; derivative + vancomycin) | MIC In combination: derivative [2, 8] [µg/mL] | MIC In combination: derivative [2, 9] [µg/mL] | MIC Derivative alone [2] [µg/mL] | MIC In combination: antibiotic [2, 10] [µg/mL] | MBEC [3] [µM] | MIC [4] [µM] | CC50 at 24 h [5] [µM] | interaction with vancomycin or cefazolin (in words) ([2]; S. epidermidis ATCC 35984, preliminary study) | MIC ([1]; Staphylococcus epidermidis) [µM] | MBC [1] [µM]
O=C(O)COc1ccc(C=C2SC(=Nc3ccc(Cl)cc3)N(c3ccc(Cl)cc3)C2=O)cc1 [H2-74, 2-{4-{[3-(4-chlorophenyl)-2-[(4-chlorophenyl)imino]-4-oxothiazolidin-5-ylidene}methyl}phenoxy}acetic acid] | 1/16 | 25 (≈ 12.5 µg/mL) | 0.8 | 1 | 0.63 | 0.38 | 0.4 | 0.2 | 0.8 | 0.5 | 50.0 | 3.1 to 6.3 (≈ 1.55 to 3.15 µg/mL) | > 200 |  |  | 
O=C(O)c1ccc(-c2ccc(C=C3SC(=Nc4ccc(Cl)cc4)N(c4ccc(Cl)cc4)C3=O)o2)cc1 [H2-39, 4-{5-{{3-(4-chlorophenyl)-2-[(4-chlorophenyl)imino]-4-oxothiazolidin-5-ylidene}methyl}furan-2-yl}benzoic acid] | 1/8 | 12.5 (≈ 6.69 µg/mL) | 0.8 | 0.25 | 0.53 | 1.13 | 0.4 | 0.8 | 0.8 | 0.5 | 12.5 | 1.5 to 3.1 (≈ 0.803 to 1.66 µg/mL) | > 200 |  |  | 
O=C(O)c1ccc(-c2ccc(/C=C3\S/C(=N\c4ccccc4)N(c4ccc(F)cc4)C3=O)s2)cc1 [H2-81, 4-{5-{{3-(4-fluorophenyl)-2-[(4-phenyl)imino]-4-oxothiazolidin-5-ylidene}methyl}thiophene-2-yl}benzoic acid] | 1/4 | 6.3 (≈ 3.15 µg/mL) | 0.7 | 1 | 0.38 | 0.5 | 0.18 | 0.18 | 0.7 | 1 | 6.3 | 1.5 (≈ 0.751 µg/mL) | > 200 | synergistic effect |  | 
O=C(O)c1ccc(-c2ccc(/C=C3\S/C(=N\c4ccccc4)N(c4ccc(Cl)cc4)C3=O)o2)cc1 [H2-57, 4-{5-{{3-(4-chlorophenyl)-2-[(4-phenyl)imino]-4-oxothiazolidin-5-ylidene}methyl}furan-2-yl}benzoic acid] | 1/4 | 12.5 (≈ 6.26 µg/mL) | 1.7 | 0.25 | 0.53 | 1.13 | 0.85 |  |  | 0.5 | 12.5 | 1.5 to 3.1 (≈ 0.751 to 1.55 µg/mL) | > 200 |  | ≤ 3.1 | 
O=C(O)c1cccc(-c2ccc(C=C3SC(=Nc4ccc(Cl)cc4)N(c4ccc(Cl)cc4)C3=O)o2)c1 [H2-38, 3-{5-{{3-(4-chlorophenyl)-2-[(4-chlorophenyl)imino]-4-oxothiazolidin-5-ylidene}methyl}furan-2-yl}benzoic acid] | 1/8 | 12.5 (≈ 6.69 µg/mL) | 0.8 | 0.5 | 0.56 | 0.63 | 0.4 | 0.4 | 0.8 | 0.5 | 12.5 | 1.5 to 3.1 (≈ 0.803 to 1.66 µg/mL) | > 200 |  |  | 
O=C(O)c1ccc(-c2ccc(C=C3SC(=Nc4ccc(F)cc4)N(c4ccc(F)cc4)C3=O)s2)cc1 [H2-60, 4-{5-{{3-(4-fluorophenyl)-2-[(4-fluorophenyl)imino]-4-oxothiazolidin-5-ylidene}methyl}thiophene-2-yl}benzoic acid] | 1/8 | 12.5 (≈ 6.48 µg/mL) | 1.7 | 0.25 | 0.53 | 0.56 | 0.85 | 0.85 |  | 0.25 | 12.5 | 1.5 to 3.1 (≈ 0.778 to 1.61 µg/mL) | > 200 |  |  | 
CCc1ccccc1/N=C1\S/C(=C\c2ccc(OCC(=O)O)c(OC)c2)C(=O)N1c1ccccc1CC [Compound 2, {2-{4-{3-(2-ethylphenyl)-2-[(2-ethylphenyl)imino]-4-oxothiazolidin-5-ylidene}methyl}-2-methoxyphenoxy}acetic acid] | 1/4 | 100 (≈ 51.7 µg/mL) |  |  |  |  |  |  |  |  | 100.0 | 25 to 50 (≈ 12.9 to 25.8 µg/mL) | 50 |  | 25 (≈ 12.9 µg/mL) | 100.0 (≈ 51.7 µg/mL)
